Data published in ChEMBL document CHEMBL4376833, “Influence of Non-natural Cationic Amino Acids on the Biological Activity Profile of Innate Defense Regulator Peptides” (J Med Chem, 2019).
The source made the active and inactive calls. No rule for the calls is given here. Non-standard residues stand in square brackets, D forms with d. Residues, ends and D or L forms follow the SMILES beside them. hArg = N=C(N)NCCCC[C@H](N)C(=O)O; Agb = N=C(N)NCC[C@H](N)C(=O)O; Agp = N=C(N)NC[C@H](N)C(=O)O; Orn = NCCC[C@H](N)C(=O)O; Dab = NCC[C@H](N)C(=O)O; Dap = NC[C@H](N)C(=O)O

What was measured:
Staphylococcus aureus [1] = assay: Antibiofilm activity against methicillin-resistant Staphylococcus aureus assessed as inhibition of biofilm formation incubated for overnight by crystal violet staining based microtiter plate assay; assay type: functional, organism-based
Staphylococcus aureus [2] = assay: Antibiofilm activity against methicillin-resistant Staphylococcus aureus assessed as inhibition of biofilm formation by measuring residual biofilm growth incubated for overnight at 10-fold dilution by crystal violet staining based microtiter plate assay relative to control; assay type: functional
Staphylococcus aureus [3] = assay: Antibacterial activity against methicillin-resistant Staphylococcus aureus assessed as alteration in bacterial growth incubated for overnight by microtiter plate based spectrophotometric analysis; assay type: functional, organism-based

Structure (SMILES)	inhibition (Staphylococcus aureus [1])	residual biofilm growth (% of control) (Staphylococcus aureus [2])	Activity (Staphylococcus aureus [3])
CC[C@H](C)[C@H](NC(=O)[C@H](CC(C)C)NC(=O)[C@H](CCCNC(=N)N)NC(=O)[C@@H](N)C(C)C)C(=O)N[C@H](C(=O)N[C@@H](C)C(=O)N[C@H](C(=O)N[C@@H](CCCNC(=N)N)C(=O)N[C@@H](CNC(=N)N)C(=O)N[C@@H](Cc1c[nH]c2ccccc12)C(=O)N[C@@H](CCCNC(=N)N)C(=O)N[C@@H](CCCNC(=N)N)C(N)=O)C(C)C)C(C)C (H-VRLIVAVR[Agp]WRR-NH2)	Dose-dependent effect	104.1%	Active
CC[C@H](C)[C@H](NC(=O)[C@H](CC(C)C)NC(=O)[C@H](CCCNC(=N)N)NC(=O)[C@@H](N)C(C)C)C(=O)N[C@H](C(=O)N[C@@H](C)C(=O)N[C@H](C(=O)N[C@@H](CCCNC(=N)N)C(=O)N[C@@H](CCN)C(=O)N[C@@H](Cc1c[nH]c2ccccc12)C(=O)N[C@@H](CCCNC(=N)N)C(=O)N[C@@H](CCCNC(=N)N)C(N)=O)C(C)C)C(C)C (H-VRLIVAVR[Dab]WRR-NH2)	Dose-dependent effect	102%	Active
CC[C@H](C)[C@H](NC(=O)[C@H](CC(C)C)NC(=O)[C@H](CCCNC(=N)N)NC(=O)[C@@H](N)C(C)C)C(=O)N[C@H](C(=O)N[C@@H](C)C(=O)N[C@H](C(=O)N[C@@H](CCCNC(=N)N)C(=O)N[C@@H](CN)C(=O)N[C@@H](Cc1c[nH]c2ccccc12)C(=O)N[C@@H](CCCNC(=N)N)C(=O)N[C@@H](CCCNC(=N)N)C(N)=O)C(C)C)C(C)C (H-VRLIVAVR[Dap]WRR-NH2)	Dose-dependent effect	51.8%	Active
CC[C@H](C)[C@H](NC(=O)[C@H](CC(C)C)NC(=O)[C@H](CCCNC(=N)N)NC(=O)[C@@H](N)C(C)C)C(=O)N[C@H](C(=O)N[C@@H](C)C(=O)N[C@H](C(=O)N[C@@H](CCCNC(=N)N)C(=O)N[C@@H](CCCN)C(=O)N[C@@H](Cc1c[nH]c2ccccc12)C(=O)N[C@@H](CCCNC(=N)N)C(=O)N[C@@H](CCCNC(=N)N)C(N)=O)C(C)C)C(C)C (H-VRLIVAVR[Orn]WRR-NH2)	Dose-dependent effect	79.3%	Active
CC[C@H](C)[C@H](NC(=O)[C@H](CC(C)C)NC(=O)[C@H](CCCNC(=N)N)NC(=O)[C@@H](N)C(C)C)C(=O)N[C@H](C(=O)N[C@@H](C)C(=O)N[C@H](C(=O)N[C@@H](CCCNC(=N)N)C(=O)N[C@@H](CCCCNC(=N)N)C(=O)N[C@@H](Cc1c[nH]c2ccccc12)C(=O)N[C@@H](CCCNC(=N)N)C(=O)N[C@@H](CCCNC(=N)N)C(N)=O)C(C)C)C(C)C (H-VRLIVAVR[hArg]WRR-NH2)	Dose-dependent effect	84.7%	Active
CC[C@H](C)[C@H](NC(=O)[C@H](CCNC(=N)N)NC(=O)[C@@H](NC(=O)[C@H](C)NC(=O)[C@@H](NC(=O)[C@@H](NC(=O)[C@H](CC(C)C)NC(=O)[C@H](CCCNC(=N)N)NC(=O)[C@@H](N)C(C)C)[C@@H](C)CC)C(C)C)C(C)C)C(=O)N[C@@H](Cc1c[nH]c2ccccc12)C(=O)N[C@@H](CCCNC(=N)N)C(=O)N[C@@H](CCCNC(=N)N)C(N)=O (H-VRLIVAV[Agb]IWRR-NH2)	Dose-dependent effect	103.5%	Active
CC[C@H](C)[C@H](NC(=O)[C@H](CNC(=N)N)NC(=O)[C@@H](NC(=O)[C@H](C)NC(=O)[C@@H](NC(=O)[C@@H](NC(=O)[C@H](CC(C)C)NC(=O)[C@H](CCCNC(=N)N)NC(=O)[C@@H](N)C(C)C)[C@@H](C)CC)C(C)C)C(C)C)C(=O)N[C@@H](Cc1c[nH]c2ccccc12)C(=O)N[C@@H](CCCNC(=N)N)C(=O)N[C@@H](CCCNC(=N)N)C(N)=O (H-VRLIVAV[Agp]IWRR-NH2)	Dose-dependent effect	102.2%	Active
CC[C@H](C)[C@H](NC(=O)[C@H](CCN)NC(=O)[C@@H](NC(=O)[C@H](C)NC(=O)[C@@H](NC(=O)[C@@H](NC(=O)[C@H](CC(C)C)NC(=O)[C@H](CCCNC(=N)N)NC(=O)[C@@H](N)C(C)C)[C@@H](C)CC)C(C)C)C(C)C)C(=O)N[C@@H](Cc1c[nH]c2ccccc12)C(=O)N[C@@H](CCCNC(=N)N)C(=O)N[C@@H](CCCNC(=N)N)C(N)=O (H-VRLIVAV[Dab]IWRR-NH2)	Dose-dependent effect	103.9%	Active
CC[C@H](C)[C@H](NC(=O)[C@H](CN)NC(=O)[C@@H](NC(=O)[C@H](C)NC(=O)[C@@H](NC(=O)[C@@H](NC(=O)[C@H](CC(C)C)NC(=O)[C@H](CCCNC(=N)N)NC(=O)[C@@H](N)C(C)C)[C@@H](C)CC)C(C)C)C(C)C)C(=O)N[C@@H](Cc1c[nH]c2ccccc12)C(=O)N[C@@H](CCCNC(=N)N)C(=O)N[C@@H](CCCNC(=N)N)C(N)=O (H-VRLIVAV[Dap]IWRR-NH2)	Dose-dependent effect	26.8%	Active
CC[C@H](C)[C@H](NC(=O)[C@H](CCCN)NC(=O)[C@@H](NC(=O)[C@H](C)NC(=O)[C@@H](NC(=O)[C@@H](NC(=O)[C@H](CC(C)C)NC(=O)[C@H](CCCNC(=N)N)NC(=O)[C@@H](N)C(C)C)[C@@H](C)CC)C(C)C)C(C)C)C(=O)N[C@@H](Cc1c[nH]c2ccccc12)C(=O)N[C@@H](CCCNC(=N)N)C(=O)N[C@@H](CCCNC(=N)N)C(N)=O (H-VRLIVAV[Orn]IWRR-NH2)	Dose-dependent effect	14%	Active
CC[C@H](C)[C@H](NC(=O)[C@H](CCCCNC(=N)N)NC(=O)[C@@H](NC(=O)[C@H](C)NC(=O)[C@@H](NC(=O)[C@@H](NC(=O)[C@H](CC(C)C)NC(=O)[C@H](CCCNC(=N)N)NC(=O)[C@@H](N)C(C)C)[C@@H](C)CC)C(C)C)C(C)C)C(=O)N[C@@H](Cc1c[nH]c2ccccc12)C(=O)N[C@@H](CCCNC(=N)N)C(=O)N[C@@H](CCCNC(=N)N)C(N)=O (H-VRLIVAV[hArg]IWRR-NH2)	Dose-dependent effect	26.3%	Active
CC[C@H](C)[C@H](NC(=O)[C@H](CCCNC(=N)N)NC(=O)[C@H](CCNC(=N)N)NC(=O)[C@H](C)NC(=O)[C@@H](NC(=O)[C@@H](NC(=O)[C@H](CC(C)C)NC(=O)[C@H](CCCNC(=N)N)NC(=O)[C@@H](N)C(C)C)[C@@H](C)CC)C(C)C)C(=O)N[C@@H](Cc1c[nH]c2ccccc12)C(=O)N[C@@H](CCCNC(=N)N)C(=O)N[C@@H](CCCNC(=N)N)C(N)=O (H-VRLIVA[Agb]RIWRR-NH2)	Dose-dependent effect	104.1%	Active
CC[C@H](C)[C@H](NC(=O)[C@H](CCCNC(=N)N)NC(=O)[C@H](CNC(=N)N)NC(=O)[C@H](C)NC(=O)[C@@H](NC(=O)[C@@H](NC(=O)[C@H](CC(C)C)NC(=O)[C@H](CCCNC(=N)N)NC(=O)[C@@H](N)C(C)C)[C@@H](C)CC)C(C)C)C(=O)N[C@@H](Cc1c[nH]c2ccccc12)C(=O)N[C@@H](CCCNC(=N)N)C(=O)N[C@@H](CCCNC(=N)N)C(N)=O (H-VRLIVA[Agp]RIWRR-NH2)	Dose-dependent effect	106.7%	Active
CC[C@H](C)[C@H](NC(=O)[C@H](CCCNC(=N)N)NC(=O)[C@H](CCN)NC(=O)[C@H](C)NC(=O)[C@@H](NC(=O)[C@@H](NC(=O)[C@H](CC(C)C)NC(=O)[C@H](CCCNC(=N)N)NC(=O)[C@@H](N)C(C)C)[C@@H](C)CC)C(C)C)C(=O)N[C@@H](Cc1c[nH]c2ccccc12)C(=O)N[C@@H](CCCNC(=N)N)C(=O)N[C@@H](CCCNC(=N)N)C(N)=O (H-VRLIVA[Dab]RIWRR-NH2)	Dose-dependent effect	102.5%	Active
CC[C@H](C)[C@H](NC(=O)[C@H](CCCNC(=N)N)NC(=O)[C@H](CN)NC(=O)[C@H](C)NC(=O)[C@@H](NC(=O)[C@@H](NC(=O)[C@H](CC(C)C)NC(=O)[C@H](CCCNC(=N)N)NC(=O)[C@@H](N)C(C)C)[C@@H](C)CC)C(C)C)C(=O)N[C@@H](Cc1c[nH]c2ccccc12)C(=O)N[C@@H](CCCNC(=N)N)C(=O)N[C@@H](CCCNC(=N)N)C(N)=O (H-VRLIVA[Dap]RIWRR-NH2)	Dose-dependent effect	102%	Active
CC[C@H](C)[C@H](NC(=O)[C@H](CCCNC(=N)N)NC(=O)[C@H](CCCN)NC(=O)[C@H](C)NC(=O)[C@@H](NC(=O)[C@@H](NC(=O)[C@H](CC(C)C)NC(=O)[C@H](CCCNC(=N)N)NC(=O)[C@@H](N)C(C)C)[C@@H](C)CC)C(C)C)C(=O)N[C@@H](Cc1c[nH]c2ccccc12)C(=O)N[C@@H](CCCNC(=N)N)C(=O)N[C@@H](CCCNC(=N)N)C(N)=O (H-VRLIVA[Orn]RIWRR-NH2)	Dose-dependent effect	103%	Active
CC[C@H](C)[C@H](NC(=O)[C@H](CCCNC(=N)N)NC(=O)[C@H](CCCCNC(=N)N)NC(=O)[C@H](C)NC(=O)[C@@H](NC(=O)[C@@H](NC(=O)[C@H](CC(C)C)NC(=O)[C@H](CCCNC(=N)N)NC(=O)[C@@H](N)C(C)C)[C@@H](C)CC)C(C)C)C(=O)N[C@@H](Cc1c[nH]c2ccccc12)C(=O)N[C@@H](CCCNC(=N)N)C(=O)N[C@@H](CCCNC(=N)N)C(N)=O (H-VRLIVA[hArg]RIWRR-NH2)	Dose-dependent effect	107%	Active
CC[C@H](C)[C@H](NC(=O)[C@H](CCCNC(=N)N)NC(=O)[C@@H](NC(=O)[C@H](CCNC(=N)N)NC(=O)[C@@H](NC(=O)[C@@H](NC(=O)[C@H](CC(C)C)NC(=O)[C@H](CCCNC(=N)N)NC(=O)[C@@H](N)C(C)C)[C@@H](C)CC)C(C)C)C(C)C)C(=O)N[C@@H](Cc1c[nH]c2ccccc12)C(=O)N[C@@H](CCCNC(=N)N)C(=O)N[C@@H](CCCNC(=N)N)C(N)=O (H-VRLIV[Agb]VRIWRR-NH2)	Dose-dependent effect	105.9%	Active
